{
  "source": "patent US20210276987A1",
  "about": "“PHARMACEUTICAL AGENTS FOR USE IN SMOKING AND TOBACCO CESSATION” (Washington State University, priority 2018, published 2021)",
  "key": {"CYP2C9": {"target": "CYP2C9 (Homo sapiens, UniProt P11712)", "sequence (P11712 whole entry)": "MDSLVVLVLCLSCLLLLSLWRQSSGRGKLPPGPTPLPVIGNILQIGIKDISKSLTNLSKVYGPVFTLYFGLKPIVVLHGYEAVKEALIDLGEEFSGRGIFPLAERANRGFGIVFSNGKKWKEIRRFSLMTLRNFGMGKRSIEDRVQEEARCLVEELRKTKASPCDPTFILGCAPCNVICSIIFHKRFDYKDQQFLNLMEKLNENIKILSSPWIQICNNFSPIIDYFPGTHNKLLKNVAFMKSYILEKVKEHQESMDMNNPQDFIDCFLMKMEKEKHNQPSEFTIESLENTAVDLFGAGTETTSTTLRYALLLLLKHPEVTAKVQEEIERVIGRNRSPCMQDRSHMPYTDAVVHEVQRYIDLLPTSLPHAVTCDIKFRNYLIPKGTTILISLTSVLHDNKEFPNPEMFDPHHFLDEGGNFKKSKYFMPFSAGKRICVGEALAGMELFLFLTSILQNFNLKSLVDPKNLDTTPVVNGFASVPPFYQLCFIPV", "assay": "CYP2C9 inhibition assay, human liver microsomes, diclofenac probe (cocktail)", "settings": "Table 6"}, "CYP1A2": {"target": "T1, CYP1A2 (Homo sapiens, UniProt P05177)", "T1 sequence (P05177 1-516)": "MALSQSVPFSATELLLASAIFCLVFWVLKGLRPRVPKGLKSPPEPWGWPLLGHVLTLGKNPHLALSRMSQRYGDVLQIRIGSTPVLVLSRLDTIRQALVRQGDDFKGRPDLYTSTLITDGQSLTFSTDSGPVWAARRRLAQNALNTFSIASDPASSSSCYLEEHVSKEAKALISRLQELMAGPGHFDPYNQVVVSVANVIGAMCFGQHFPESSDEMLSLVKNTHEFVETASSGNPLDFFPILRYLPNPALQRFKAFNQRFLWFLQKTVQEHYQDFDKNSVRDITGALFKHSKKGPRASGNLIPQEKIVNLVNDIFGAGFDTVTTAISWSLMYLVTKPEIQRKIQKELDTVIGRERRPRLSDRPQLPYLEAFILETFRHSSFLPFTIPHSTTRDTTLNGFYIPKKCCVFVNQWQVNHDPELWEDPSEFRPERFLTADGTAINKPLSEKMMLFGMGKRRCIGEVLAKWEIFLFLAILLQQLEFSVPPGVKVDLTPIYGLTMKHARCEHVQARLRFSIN", "assay": "CYP1A2 inhibition assay, human liver microsomes, phenacetin probe (cocktail)", "settings": "Table 6"}, "CYP2D6": {"target": "CYP2D6 (Homo sapiens, UniProt P10635)", "sequence (P10635 whole entry)": "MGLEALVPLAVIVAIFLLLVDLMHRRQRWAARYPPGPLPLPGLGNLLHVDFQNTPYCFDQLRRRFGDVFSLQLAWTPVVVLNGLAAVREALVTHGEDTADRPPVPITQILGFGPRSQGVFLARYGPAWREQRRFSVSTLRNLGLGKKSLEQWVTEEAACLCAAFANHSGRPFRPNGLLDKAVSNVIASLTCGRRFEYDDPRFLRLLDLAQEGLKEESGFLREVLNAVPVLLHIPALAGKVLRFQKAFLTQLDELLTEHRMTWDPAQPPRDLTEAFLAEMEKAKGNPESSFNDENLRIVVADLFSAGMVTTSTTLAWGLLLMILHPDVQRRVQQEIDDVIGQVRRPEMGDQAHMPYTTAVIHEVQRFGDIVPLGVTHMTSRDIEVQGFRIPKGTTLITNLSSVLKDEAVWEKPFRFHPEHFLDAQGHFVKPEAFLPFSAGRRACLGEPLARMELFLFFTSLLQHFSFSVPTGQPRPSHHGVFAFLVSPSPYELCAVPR", "assay": "CYP2D6 inhibition assay, human liver microsomes, dextromethorphan probe (cocktail)", "settings": "Table 6"}, "UGT1A4": {"target": "UGT1A4 (Homo sapiens, UniProt P22310)", "sequence (P22310 29-534)": "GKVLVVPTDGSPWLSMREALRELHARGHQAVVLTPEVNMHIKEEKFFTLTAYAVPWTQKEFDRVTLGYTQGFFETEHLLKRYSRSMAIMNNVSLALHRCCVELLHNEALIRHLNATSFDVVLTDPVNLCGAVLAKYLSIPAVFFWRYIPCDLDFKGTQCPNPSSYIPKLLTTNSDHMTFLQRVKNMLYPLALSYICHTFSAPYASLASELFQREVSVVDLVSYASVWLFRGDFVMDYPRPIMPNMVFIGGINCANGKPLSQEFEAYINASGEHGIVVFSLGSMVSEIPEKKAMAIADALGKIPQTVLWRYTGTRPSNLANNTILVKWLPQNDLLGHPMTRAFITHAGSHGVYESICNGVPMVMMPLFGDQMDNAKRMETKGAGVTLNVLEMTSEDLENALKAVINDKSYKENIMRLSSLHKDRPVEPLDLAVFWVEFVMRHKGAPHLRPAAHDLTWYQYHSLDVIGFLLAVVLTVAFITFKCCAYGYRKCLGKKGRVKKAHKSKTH", "settings": "Table 10"}, "UGT2B15": {"target": "UGT2B15 (Homo sapiens, UniProt P54855)", "sequence (P54855 24-530)": "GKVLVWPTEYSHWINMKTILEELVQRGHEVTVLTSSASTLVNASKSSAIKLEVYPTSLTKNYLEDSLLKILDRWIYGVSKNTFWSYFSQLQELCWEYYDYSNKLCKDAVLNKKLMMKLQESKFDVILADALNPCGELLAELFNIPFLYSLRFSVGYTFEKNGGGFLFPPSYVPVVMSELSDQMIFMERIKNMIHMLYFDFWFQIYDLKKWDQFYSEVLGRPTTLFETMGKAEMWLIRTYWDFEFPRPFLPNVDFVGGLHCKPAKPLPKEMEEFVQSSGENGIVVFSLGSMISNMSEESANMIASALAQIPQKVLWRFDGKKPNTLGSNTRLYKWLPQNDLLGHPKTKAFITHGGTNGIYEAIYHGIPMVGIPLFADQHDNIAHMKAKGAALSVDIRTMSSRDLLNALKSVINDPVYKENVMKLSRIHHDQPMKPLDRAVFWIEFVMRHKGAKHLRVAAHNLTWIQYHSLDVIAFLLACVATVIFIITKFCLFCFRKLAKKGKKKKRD", "settings": "Table 10"}, "UGT1A1": {"target": "UGT1A1 (Homo sapiens, UniProt P22309)", "sequence (P22309 26-533)": "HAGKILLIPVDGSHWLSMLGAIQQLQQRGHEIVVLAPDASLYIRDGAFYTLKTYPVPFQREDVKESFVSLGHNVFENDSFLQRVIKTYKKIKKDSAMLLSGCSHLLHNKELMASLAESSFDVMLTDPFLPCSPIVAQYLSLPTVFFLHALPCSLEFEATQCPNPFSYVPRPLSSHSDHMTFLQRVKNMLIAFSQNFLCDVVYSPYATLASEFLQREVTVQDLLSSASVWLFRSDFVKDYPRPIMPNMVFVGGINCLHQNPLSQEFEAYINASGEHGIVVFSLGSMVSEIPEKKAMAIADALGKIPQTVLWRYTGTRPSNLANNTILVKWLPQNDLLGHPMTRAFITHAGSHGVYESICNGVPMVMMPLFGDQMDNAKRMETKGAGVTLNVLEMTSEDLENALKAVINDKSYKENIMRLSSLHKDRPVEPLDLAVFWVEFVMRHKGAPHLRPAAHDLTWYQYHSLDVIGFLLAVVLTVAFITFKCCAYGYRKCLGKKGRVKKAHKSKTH", "settings": "Table 10"}, "[1]": {"test_system": "UGTs 1A1, 1A4, 1A6, 1A9, 2B4, 2B7, 2B10, 2B15 and 2B17", "assay": "Selectivity over other major hepatic UGT enzymes (panel statement)", "type": "biochemical, human"}, "UGT2B10": {"target": "T2, UGT2B10 (Homo sapiens, UniProt P36537)", "T2 sequence (P36537 24-528)": "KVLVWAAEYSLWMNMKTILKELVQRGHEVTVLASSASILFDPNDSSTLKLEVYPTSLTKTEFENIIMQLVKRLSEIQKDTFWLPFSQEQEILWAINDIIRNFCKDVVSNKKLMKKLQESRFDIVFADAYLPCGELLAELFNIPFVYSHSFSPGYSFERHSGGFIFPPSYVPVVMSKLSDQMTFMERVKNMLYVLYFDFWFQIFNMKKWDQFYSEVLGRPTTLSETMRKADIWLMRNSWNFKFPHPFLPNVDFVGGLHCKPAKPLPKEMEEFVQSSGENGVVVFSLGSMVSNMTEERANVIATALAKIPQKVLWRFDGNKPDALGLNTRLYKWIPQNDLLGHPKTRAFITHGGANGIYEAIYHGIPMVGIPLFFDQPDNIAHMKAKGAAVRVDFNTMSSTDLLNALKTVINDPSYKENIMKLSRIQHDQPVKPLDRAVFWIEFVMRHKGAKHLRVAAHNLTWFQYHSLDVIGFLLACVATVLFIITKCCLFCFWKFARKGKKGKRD", "assay": "biochemical", "experimental": "Initial screening assays were performed as described above for the CYP assays using 1 μM or 10 μM of each of the NAs. The inhibitory effects of each agent against UGT2B10 was performed using the known UGT2B10-specific probe substrate, nicotine, in pooled human liver microsomes. […] Pre-incubations containing 500 μM nicotine and 1 or 10 μM NA were subsequently performed at 37° C. in 50 mM Tris-HCl buffer (pH 7.5, in a final volume of 50 μL) and 10 mM MgCl2 for 5 minutes."}, "UGT1A6": {"target": "UGT1A6 (Homo sapiens, UniProt P19224)", "sequence (P19224 27-532)": "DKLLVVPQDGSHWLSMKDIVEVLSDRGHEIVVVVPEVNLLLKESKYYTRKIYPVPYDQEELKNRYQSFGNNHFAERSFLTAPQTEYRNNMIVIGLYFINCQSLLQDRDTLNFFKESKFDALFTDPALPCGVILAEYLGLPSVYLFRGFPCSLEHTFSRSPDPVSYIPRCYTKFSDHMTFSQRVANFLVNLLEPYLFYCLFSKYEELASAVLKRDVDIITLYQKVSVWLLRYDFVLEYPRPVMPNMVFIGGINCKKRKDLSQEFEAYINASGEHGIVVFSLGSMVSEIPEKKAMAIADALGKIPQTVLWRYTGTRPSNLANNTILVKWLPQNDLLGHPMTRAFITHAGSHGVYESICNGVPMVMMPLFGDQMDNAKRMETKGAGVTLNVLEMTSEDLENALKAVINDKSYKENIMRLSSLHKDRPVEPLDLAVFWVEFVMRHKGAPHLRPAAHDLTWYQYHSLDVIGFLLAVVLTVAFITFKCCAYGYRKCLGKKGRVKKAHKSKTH", "settings": "Table 10"}, "UGT2B7": {"target": "UGT2B7 (Homo sapiens, UniProt P16662)", "sequence (P16662 24-529)": "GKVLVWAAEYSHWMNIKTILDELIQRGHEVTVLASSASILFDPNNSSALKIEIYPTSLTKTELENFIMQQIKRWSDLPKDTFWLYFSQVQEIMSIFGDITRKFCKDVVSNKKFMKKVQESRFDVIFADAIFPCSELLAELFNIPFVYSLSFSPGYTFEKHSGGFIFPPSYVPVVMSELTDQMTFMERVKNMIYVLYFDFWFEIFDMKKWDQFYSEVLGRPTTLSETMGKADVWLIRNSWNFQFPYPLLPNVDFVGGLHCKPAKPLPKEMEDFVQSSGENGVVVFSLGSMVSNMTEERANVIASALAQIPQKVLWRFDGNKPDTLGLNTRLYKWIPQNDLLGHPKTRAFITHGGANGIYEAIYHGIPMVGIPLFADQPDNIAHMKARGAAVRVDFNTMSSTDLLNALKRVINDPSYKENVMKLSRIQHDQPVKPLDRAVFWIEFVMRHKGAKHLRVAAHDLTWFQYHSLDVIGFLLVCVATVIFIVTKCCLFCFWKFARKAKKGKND", "settings": "Table 10"}, "CYP2A6": {"target": "T3, CYP2A6 (Homo sapiens, UniProt P11509)", "T3 sequence (P11509 1-494)": "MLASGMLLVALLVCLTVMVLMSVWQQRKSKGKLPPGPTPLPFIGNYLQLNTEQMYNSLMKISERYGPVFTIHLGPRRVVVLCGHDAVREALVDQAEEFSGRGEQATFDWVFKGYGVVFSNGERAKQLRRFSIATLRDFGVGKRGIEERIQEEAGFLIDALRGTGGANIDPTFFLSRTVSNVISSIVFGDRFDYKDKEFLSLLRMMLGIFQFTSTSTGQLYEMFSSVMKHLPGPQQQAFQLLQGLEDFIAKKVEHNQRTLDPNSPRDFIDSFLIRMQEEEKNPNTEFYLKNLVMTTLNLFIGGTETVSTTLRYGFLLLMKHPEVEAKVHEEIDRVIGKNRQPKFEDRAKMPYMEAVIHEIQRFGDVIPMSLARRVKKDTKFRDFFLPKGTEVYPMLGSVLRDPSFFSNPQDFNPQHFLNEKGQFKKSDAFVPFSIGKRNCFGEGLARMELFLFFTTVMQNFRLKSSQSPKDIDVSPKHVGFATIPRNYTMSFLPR", "settings": "read-out: IC50 against CYP2A6; Table 5, alkyne linker agents; pooled human liver microsomes, coumarin […]"}},
  "note": "pIC50: −log10 of the molar value.",
  "data": [
    {"smiles": "COc1ccncc1C#CCN", "note": "[Compound K, 3-(4-methoxypyridin-3-yl)prop-2-yn-1-amine]", "values": [
      {"measurement": "IC50 ratio CYP2C9/CYP2A6", "setting": "CYP2C9", "result": 8.2},
      {"measurement": "IC50 ratio CYP1A2/CYP2A6", "setting": "CYP1A2", "result": 7.4},
      {"measurement": "IC50 ratio CYP2D6/CYP2A6", "setting": "CYP2D6", "result": ">15"},
      {"measurement": "IC50 ratio UGT1A4/UGT2B10", "setting": "UGT1A4", "result": 7},
      {"measurement": "IC50 ratio UGT2B15/UGT2B10", "setting": "UGT2B15", "result": 30},
      {"measurement": "IC50 ratio UGT1A1/UGT2B10", "setting": "UGT1A1", "result": 4},
      {"measurement": "UGThepatic/UGT2B10 IC50 ratio against all UGT enzymes tested", "setting": "[1]", "result": "> 3.5"},
      {"measurement": "pIC50", "setting": "UGT2B10; IC50 against UGT2B10", "result": "> 4.22"},
      {"measurement": "IC50", "setting": "UGT2B10; IC50 against UGT2B10 (μM), Table 9, pooled human liver microsomes, nicotine 500 μM", "result": 33, "unit": "µM"},
      {"measurement": "IC50 ratio UGT1A6/UGT2B10", "setting": "UGT1A6", "result": 29},
      {"measurement": "IC50 ratio UGT2B7/UGT2B10", "setting": "UGT2B7", "result": 13},
      {"measurement": "pIC50", "setting": "CYP2A6", "result": 5.47}
    ]}
  ]
}
